# Measurements taken from patent publication US11541029B2, “High penetration compositions and their applications” (Techfields Pharma Co., Ltd., priority 2008, dated 2023).
# Key:
# [1] = system: human myeloma cell line implanted into mice; assay: Survival of mice with multiple myeloma (Example 110, Study B); assay type: in vivo; details: n=5
# Method: Study B: For evaluation of antitumor activity, a human myeloma cell line derived from the ascites of a patient with multiple myeloma was implanted into mice. The experiment was carried out on 17 groups of mice. Control group (A, orally), chlorambucil (group B1: 1 mg/kg, orally, group B2, 3 mg/kg, orally, group B3:1 mg/kg, transdermally, and group B4: 3 mg/kg, transdermally), melphalan (group C1: 1 mg/kg, orally, group C2, 3 mg/kg, orally, group C3:1 mg/kg, transdermally, and group C4: 3 mg/kg, transdermally), N,N-diethylaminoethyl 4-[bis(2-chloroethyl)amino]benzenebutyrate.HBr (the HPC of chlorambucil (group D1: 1 mg/kg, orally, group D2, 3 mg/kg, orally, group D3:1 mg/kg, transdermally, and group D4: 3 mg/kg, transdermally), and 4-[bis(2-chloroethyl)amino]-N-acetyl-L-phenylalanine N,N-diethylaminoethyl ester hydrobromide (the HPC of melphalan) (group E1: 1 mg/kg, orally, group E2, 3 mg/kg, orally, group E3:1 mg/kg, transdermally, and group E4: 3 mg/kg, transdermally).
# [2] = system: human myeloma cell line implanted into mice; assay: Survival and weight loss of myeloma mice (Example 111); assay type: in vivo; details: for Weight Loss: day 21; for Life Elongation Rate / None Disease Rate / Survival Period: n=7
# From the text: A human myeloma cell line derived from the ascites of a patient with multiple myeloma was implanted into mice. The mice was divided into 11 groups: control group (A, orally), melphalan (B1 and B2, orally), chlorambucil (C1 and C2, orally), N,N-diethylaminoethyl 4-[bis(2-chloroethyl)amino]benzenebutyrate.HBr (D1 and D2, transdermally), 4-[bis(2-chloroethyl)amino]-N-acetyl-L-phenylalanine N,N-diethylaminoethyl ester hydrobromide (E1 and E2, transdermally in 5% aqueous solution), and diethylaminoethyl 4-[bis(2-methylsulfonylethyl)amino]benzenebutyrate.HCl (F1 and F2, transdermally in 5% aqueous solution). The body weight loss of mice was determined on day 21.
# [3] = system: Human breast cancer cells (BCAP-37); assay: Human breast cancer xenograft in nude mice
# Method: Human breast cancer cells (BCAP-37, 2-3 mm^3 of tumor tissue was used in each mouse) were subcutaneously xenografted into nude mice (BALB, 12 groups, 7 mice each group). […] 50 μl of 5% (equal to 2.5 mg of the HPCs) diethylaminoethyl acetylsalicylate.HCl (P-1, in pure water); 1-piperidinepropyl 2[(2,6-dichlorophenyl)amino]benzene acetate.HCl (P-2, in water), 1-pyrrolidinepropyl 2-(3-benzoylphenyl) propionate.HCl (P-3, in water), 4-piperidinemethyl 2-(3-phenoxyphenyl)propionate.HCl (P-4, in water), 3-piperidinemethyl 2-(ρ-isobutylphenyl) propionate.HCl (P-5, in water), diethylaminoethyl 1-(p-chlorobenzoyl)-5-methoxy-2-methylindole 3-acetate.HCl (P-11, in water), 2-(4-morpholinyl)ethyl (Z)-5-fluoro-2-methyl-1-[(4-methylsulfinyl)phenylmethylene]-1H-indene-3-acetate.
# [4] = Distribution in organs of rats killed with CO2 (absence of general circulation); details: 5 hrs after 0.3 mmol/kg diethylaminoethyl acetylsalicylate HCl salt on back of killed rats;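 further: tissue concentration in nmol/g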
# Method: 0.3 mmol/kg of diethylaminoethyl acetylsalicylate HCl salt (10% in pure water) was applied to the back of rats (10 cm^2) which were killed with CO2. The rats were shaken for 5 hrs, then the HPCs and parent drugs in organs of rats were determined.
# [5] = 1.5 mg/kg per day, transdermally
# [6] = 50 μl of 5% topically every 8 hours
# [7] = 50 μl of 5% topically every 8 hours, in g (unit assumed)
smiles,measurement,setting,value
"Br.CCN(CC)CCOC(=O)[C@H](Cc1ccc(N(CCCl)CCCl)cc1)NC(C)=O [4-[bis(2-chloroethyl)amino]-N-acetyl-L-phenylalanine N,N-diethylaminoethyl ester hydrobromide]",Life Elongation Rate,"[1]; 1 mg/kg per day, orally",151%
same,Survival Period,"[1]; 1 mg/kg per day, orally",68.7 ± 5.1 days
same,Life Elongation Rate,"[1]; 1 mg/kg per day, transdermally",190%
same,Survival Period,"[1]; 1 mg/kg per day, transdermally",86.7 ± 4.5 days
same,Life Elongation Rate,"[1]; 3 mg/kg per day, orally",187%
same,Survival Period,"[1]; 3 mg/kg per day, orally",85.2 ± 4.3 days
same,Life Elongation Rate,"[1]; 3 mg/kg per day, transdermally",192%
same,Survival Period,"[1]; 3 mg/kg per day, transdermally",87.5 ± 4.2 days
same,Weight Loss,[2]; [5],5%
same,Life Elongation Rate,[2]; [5],272%
same,None Disease Rate,[2]; [5],4/7
same,Survival Period,[2]; [5],118.5 ± 7.6 days
same,Weight Loss,"[2]; 3 mg/kg per day, transdermally",9%
same,Life Elongation Rate,"[2]; 3 mg/kg per day, transdermally",265%
same,None Disease Rate,"[2]; 3 mg/kg per day, transdermally",3/7
same,Survival Period,"[2]; 3 mg/kg per day, transdermally",115.2 ± 6.8 days
"Br.CCN(CC)CCOC(=O)CCCc1ccc(N(CCCl)CCCl)cc1 [N,N-diethylaminoethyl 4-[bis(2-chloroethyl)amino]benzenebutyrate.HBr]",Life Elongation Rate,"[1]; 1 mg/kg per day, orally",158%
same,Survival Period,"[1]; 1 mg/kg per day, orally",71.7 ± 3.3 days
same,Life Elongation Rate,"[1]; 1 mg/kg per day, transdermally",188%
same,Survival Period,"[1]; 1 mg/kg per day, transdermally",85.7 ± 4.4 days
same,Life Elongation Rate,"[1]; 3 mg/kg per day, orally",194%
same,Survival Period,"[1]; 3 mg/kg per day, orally",88.5 ± 3.2 days
same,Life Elongation Rate,"[1]; 3 mg/kg per day, transdermally",201%
same,Survival Period,"[1]; 3 mg/kg per day, transdermally",91.5 ± 4.7 days
same,Weight Loss,[2]; [5],7%
same,Life Elongation Rate,[2]; [5],282%
same,None Disease Rate,[2]; [5],4/7
same,Survival Period,[2]; [5],122.5 ± 7.3 days
same,Weight Loss,"[2]; 3 mg/kg per day, transdermally",10%
same,Life Elongation Rate,"[2]; 3 mg/kg per day, transdermally",269%
same,None Disease Rate,"[2]; 3 mg/kg per day, transdermally",4/7
same,Survival Period,"[2]; 3 mg/kg per day, transdermally",117.2 ± 6.1 days
"CCN(CC)CCOC(=O)Cc1c(C)n(C(=O)c2ccc(Cl)cc2)c2ccc(OC)cc12.Cl [P-11, diethylaminoethyl 1-(p-chlorobenzoyl)-5-methoxy-2-methylindole 3-acetate.HCl]",tumor Size at day 42,[3]; [6],230 ± 105 mm^3
same,Weight of mice at day 42,[3]; [7],23 ± 2
"CC1=C(CC(=O)OCCN2CCOCC2)c2cc(F)ccc2/C1=C\c1ccc([S+](C)[O-])cc1.Cl (stereo not drawn) [P-12, 2-(4-morpholinyl)ethyl (Z)-5-fluoro-2-methyl-1-[(4-methylsulfinyl)phenylmethylene]-1H-indene-3-acetate. HCl]",tumor Size at day 42,[3]; [6],240 ± 60 mm^3
same,Weight of mice at day 42,[3]; in vivo,23 ± 3
"CCN(CC)CCOC(=O)Cc1ccccc1Oc1ccc(Cl)cc1Cl.Cl [P-19, diethylaminoethyl 2-(2,4-dichlorophenoxy)benzeneacetate.HCl]",tumor Size at day 42,[3]; [6],260 ± 55 mm^3
same,Weight of mice at day 42,[3]; in vivo,22 ± 2
"CCN(CC)CCOC(=O)C(C)c1ccc2c(c1)C(=O)Cc1cc(C)ccc1O2.Cl (stereo not drawn) [P-37, diethylaminoethyl 2-(8-methyl-10,11-dihydro-11-oxodibenz(b,f)oxepin-2-yl)propionate.HCl]",tumor Size at day 42,[3]; [6],270 ± 70 mm^3
same,Weight of mice at day 42,[3]; in vivo,23 ± 3
Cl.O=C(OCCCN1CCCC1)c1ccccc1Nc1cccc(C(F)(F)F)c1 [P-48],tumor Size at day 42,[3]; [6],280 ± 50 mm^3
same,Weight of mice at day 42,[3]; [7],22 ± 3
"CN(C)CCCC(=O)OC1=C(C(=O)Nc2ccccn2)N(C)S(=O)(=O)c2ccccc21.Cl [P-51, 4-N,N-dimethylaminobutyryloxy-2-methyl-N-2-pyridinyl-2H,1,2-benzothiazine-3-carboxamide 1,1-dioxide.HCl]",tumor Size at day 42,[3]; [6],390 ± 55 mm^3
same,Weight of mice at day 42,[3]; in vivo,23 ± 2
CCN(CC)CCOC(=O)CCCc1ccc(N(CCS(C)(=O)=O)CCS(C)(=O)=O)cc1.Cl [diethylaminoethyl 4-[bis(2-methylsulfonylethyl)amino]benzenebutyrate.HCl],Weight Loss,[2]; [5],7%
same,Life Elongation Rate,[2]; [5],259%
same,None Disease Rate,[2]; [5],4/7
same,Survival Period,[2]; [5],112.5 ± 8.7 days
same,Weight Loss,"[2]; 3 mg/kg per day, transdermally",11%
same,Life Elongation Rate,"[2]; 3 mg/kg per day, transdermally",256%
same,None Disease Rate,"[2]; 3 mg/kg per day, transdermally",3/7
same,Survival Period,"[2]; 3 mg/kg per day, transdermally",111.2 ± 5.9 days
CCN(CC)CCOc1ccccc1C(=O)O [diethylaminoethyl salicylic acid],concentration in Leg muscle,[4],6.2 ± 3.2 nmol/g
same,concentration in kidney,[4],3.1 ± 1.6 nmol/g
same,concentration in liver,[4],1.5 ± 1.2 nmol/g
same,concentration in pancreas,[4],3.1 ± 1.1 nmol/g
same,concentration in stomach,[4],3.2 ± 1.3 nmol/g
"N[C@@H](Cc1ccc(N(CCCl)CCCl)cc1)C(=O)O [melphalan, reference compound]",Life Elongation Rate,"[1]; 1 mg/kg per day, orally",106%
same,Survival Period,"[1]; 1 mg/kg per day, orally",48.1 ± 5.3 days
same,Life Elongation Rate,"[1]; 1 mg/kg per day, transdermally",98%
same,Survival Period,"[1]; 1 mg/kg per day, transdermally",44.7 ± 3.6 days
same,Life Elongation Rate,"[1]; 3 mg/kg per day, orally",155%
same,Survival Period,"[1]; 3 mg/kg per day, orally",70.5 ± 3.2 days
same,Life Elongation Rate,"[1]; 3 mg/kg per day, transdermally",100%
same,Survival Period,"[1]; 3 mg/kg per day, transdermally",45.6 ± 3.6 days
same,Weight Loss,"[2]; 1.5 mg/kg per day, orally",10%
same,Life Elongation Rate,"[2]; 1.5 mg/kg per day, orally",121%
same,None Disease Rate,"[2]; 1.5 mg/kg per day, orally",0/7
same,Survival Period,"[2]; 1.5 mg/kg per day, orally",52.7 ± 4.3 days
same,Weight Loss,"[2]; 3 mg/kg per day, orally",20%
same,Life Elongation Rate,"[2]; 3 mg/kg per day, orally",192%
same,None Disease Rate,"[2]; 3 mg/kg per day, orally",2/7
same,Survival Period,"[2]; 3 mg/kg per day, orally",83.5 ± 5.8 days
O=C(O)c1ccccc1O [salicylic acid],concentration in Leg muscle,[4],41.4 ± 11.2 nmol/g
same,concentration in kidney,[4],21.2 ± 7.6 nmol/g
same,concentration in liver,[4],12.2 ± 6.1 nmol/g
same,concentration in pancreas,[4],14.1 ± 1.2 nmol/g
same,concentration in stomach,[4],25.1 ± 2.4 nmol/g
